Values of other authors in patent publication US20070269473A1, “Microbial Encapsulation” (priority 2004, published 2007).

conditions: octanol/water; carriers

| Compound | logP(o/w) |
| --- | --- |
| 1,3,5-trimethyl-Benzene (Mesitylene) | 3.6 |
| COC(=O)c1ccccc1 [Methyl benzoate] | 1.8 |
| Acetophenone (1-phenyl-Ethanone) | 1.7 |
